The data set in a line: xn = mol fraction of the nth substance listed. The settings on record: 298.15 K, 101 kPa.

Each structure is given as a SMILES string.

The term viscosity denotes the resistance of a fluid to flow. `CCCCCCCCn1cc[n+](C)c1.F[B-](F)(F)F` + CCC(C)=O: the viscosity by setting is: (x2 = 0) 336 mPa·s; (x2 = 0.209) 100.3 mPa·s; (x2 = 0.2713) 69.9 mPa·s; (x2 = 0.3991) 34.24 mPa·s; (x2 = 0.5032) 18.4 mPa·s; (x2 = 0.551) 13.82 mPa·s. Also, the viscosity (x2 = 0.6006) was 10.26 mPa·s, the viscosity (x2 = 0.6442) is reported as 7.54 mPa·s and the viscosity (x2 = 0.9518) worked out at 0.63 mPa·s.

Consider `CCC(C)=O` + CCCCCCCCn1cc[n+](C)c1.F[B-](F)(F)F, for which, where the note is “x1 = 1”, the viscosity came out at 0.39 mPa·s.

With `CCCOC(C)=O` + CCCCCCCCn1cc[n+](C)c1.F[B-](F)(F)F, the viscosity (x1 = 1) is 0.56 mPa·s.

Regarding `CCOC(C)=O` + CCCCCCCCn1cc[n+](C)c1.F[B-](F)(F)F, the viscosity (x1 = 1) was found to be 0.44 mPa·s.

`COC(C)=O` + CCCCCCCCn1cc[n+](C)c1.F[B-](F)(F)F gave a viscosity (x1 = 1) of 0.39 mPa·s.

As to `CCCCCCCCn1cc[n+](C)c1.F[B-](F)(F)F` + CCCCOC(C)=O, the viscosity (x2 = 0) is given as 336 mPa·s; the viscosity (x2 = 0.1989) came to 124.4 mPa·s; the viscosity (x2 = 0.3002) is listed as 74.3 mPa·s; the viscosity (x2 = 0.3991) was 45.91 mPa·s; the viscosity (x2 = 0.502) was found to be 27.13 mPa·s; the viscosity (x2 = 0.5548) is recorded as 20.31 mPa·s. Also, the viscosity reads like this: (x2 = 0.6024) 15.79 mPa·s; (x2 = 0.654) 11.56 mPa·s; (x2 = 0.7075) 8.27 mPa·s; (x2 = 0.8007) 4.31 mPa·s; (x2 = 0.95) 1.14 mPa·s.

On to `CCCCCCCCn1cc[n+](C)c1.F[B-](F)(F)F` + CCCOC(C)=O, for which the viscosity came out at 336 mPa·s (x2 = 0); 198.9 mPa·s (x2 = 0.1006); 121.1 mPa·s (x2 = 0.197); 75.8 mPa·s (x2 = 0.2972); 25.67 mPa·s (x2 = 0.4992); 14.19 mPa·s (x2 = 0.6013). Further, the viscosity by setting is: (x2 = 0.6504) 10.55 mPa·s; (x2 = 0.7065) 7.48 mPa·s; (x2 = 0.7992) 3.75 mPa·s; (x2 = 0.9043) 1.51 mPa·s; (x2 = 0.9529) 0.91 mPa·s.

On to `CCCCCCCCn1cc[n+](C)c1.F[B-](F)(F)F` + CCOC(C)=O, for which the viscosity came to 336 mPa·s (x2 = 0); 181 mPa·s (x2 = 0.1092); 69.8 mPa·s (x2 = 0.2953); 23.13 mPa·s (x2 = 0.4999); 17.01 mPa·s (x2 = 0.5507); 6.56 mPa·s (x2 = 0.7012). Besides, the viscosity (x2 = 0.9005) was determined as 1.284 mPa·s.

As to `CCCCCCCCn1cc[n+](C)c1.F[B-](F)(F)F` + COC(C)=O, the viscosity came out at 336 mPa·s (x2 = 0); 188 mPa·s (x2 = 0.1173); 70 mPa·s (x2 = 0.2964); 34.24 mPa·s (x2 = 0.4063); 24.78 mPa·s (x2 = 0.4511); 18.4 mPa·s (x2 = 0.4964). The viscosity by setting is: (x2 = 0.6056) 10.26 mPa·s; (x2 = 0.6519) 7.54 mPa·s; (x2 = 0.7027) 5.04 mPa·s; (x2 = 0.8989) 1.03 mPa·s.
